Measurements as given in patent US20250059139A1, “COMPOUNDS FOR TREATMENT OF CANCER” (THE JOHNS HOPKINS UNIVERSITY, priority 2021, published 2025).

Target: T1, fl-HDAC4 (Homo sapiens, UniProt P56524)
T1 construct: Full-length (fl) [A.A. 1-1082] recombinant human histone deacetylase 4 (rhHDAC4) protein; FLAG (N); GST (given as 'with or without'); made in house; host or cells: HEK293-T
Assay: HDAC4 enzymatic assay with Lys(Tfa)-AMC substrate
Assay type: biochemical
Procedure: HDAC4 Enzymatic Assay. HDAC4 activity of the various recombinant forms used through these studies was assayed using the small non-protein Lys(Tfa)-AMC as described previously (Bottomley et al. J. Biol. Chem. 2008, 283:26694-26704). The specificity of this assay is documented via its inhibition by a small molecule trifluoroacetylthiophene-trifluoromethylketone derivative (TFT-PIP) described previously (id.).
Thus, TasQ's inhibition of HDAC4/NCoR1 formation involves only its binding to HDAC4. To resolve whether such TasQ binding involves the ZCD vs. ZRD in HDAC4, we took advantage of the fact that while HDAC4 has only marginal deacetylase activity against acetylated lysine-containing proteins, it can deacetylate a small non-protein trifluoroacetamide substrate (a.k.a., Lys(Tfa)-AMC). This reaction is inhibited by a small molecule trifluoroacetylthiophene-trifluoromethylketone derivative [a.k.a., TFT-PIP (FIG. 16)] due to its binding to the catalytic Zn^2+ in the ZCD, which locks the ZRD in the open conformation (Bottomley 2008).

T1 sequence (P56524 whole entry): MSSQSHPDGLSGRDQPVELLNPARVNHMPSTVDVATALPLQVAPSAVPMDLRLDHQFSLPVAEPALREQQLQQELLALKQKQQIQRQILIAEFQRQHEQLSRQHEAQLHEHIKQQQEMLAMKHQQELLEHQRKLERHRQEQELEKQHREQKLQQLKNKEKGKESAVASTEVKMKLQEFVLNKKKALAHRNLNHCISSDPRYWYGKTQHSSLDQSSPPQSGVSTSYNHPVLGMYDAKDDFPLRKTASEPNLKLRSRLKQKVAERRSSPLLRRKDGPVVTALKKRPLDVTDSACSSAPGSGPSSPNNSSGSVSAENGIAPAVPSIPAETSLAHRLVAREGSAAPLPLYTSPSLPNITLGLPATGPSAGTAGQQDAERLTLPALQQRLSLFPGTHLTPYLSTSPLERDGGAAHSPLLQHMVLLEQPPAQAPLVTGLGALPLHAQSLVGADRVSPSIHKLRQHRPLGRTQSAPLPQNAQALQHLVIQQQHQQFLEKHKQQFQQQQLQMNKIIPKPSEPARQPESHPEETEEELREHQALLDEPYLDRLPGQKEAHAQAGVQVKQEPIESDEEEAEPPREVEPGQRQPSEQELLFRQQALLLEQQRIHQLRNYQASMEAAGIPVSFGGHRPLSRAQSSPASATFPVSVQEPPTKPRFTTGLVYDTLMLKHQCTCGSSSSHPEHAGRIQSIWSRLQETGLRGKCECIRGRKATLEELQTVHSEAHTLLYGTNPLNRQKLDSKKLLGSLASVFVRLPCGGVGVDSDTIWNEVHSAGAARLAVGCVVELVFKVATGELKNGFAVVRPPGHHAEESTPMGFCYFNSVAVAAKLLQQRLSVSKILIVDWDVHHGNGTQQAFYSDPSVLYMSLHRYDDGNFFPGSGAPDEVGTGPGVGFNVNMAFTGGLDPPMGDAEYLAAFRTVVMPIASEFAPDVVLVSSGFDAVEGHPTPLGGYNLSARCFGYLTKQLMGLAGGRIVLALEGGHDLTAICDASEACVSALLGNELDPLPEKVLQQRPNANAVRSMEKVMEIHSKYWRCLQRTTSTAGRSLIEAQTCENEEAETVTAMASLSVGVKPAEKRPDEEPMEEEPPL

- effect on enzymatic activity of fl-HDAC4: inhibited
Compound: O=C(c1ccc(C(=O)C(F)(F)F)s1)N1CCn2c(-c3ccccc3)cnc2C1 [TFT-PIP]
